# Measurements reported in patent US11464750B2, “Anticancer agent and use thereof” (priority 2017, dated 2022).
# Assays:
# DT40 cells = settings: stop in the G2/M phase; cited from earlier work
# BALL-1 cells = assay: Cell Death Detection ELISA (histone-binding DNA fragmentation), BALL-1; assay type: cell-based, human; settings: 0.5 μM, 72 hours
# Method: The induction of apoptosis by 3EZ,20Ac-ingenol treatment was examined by detecting histone-binding DNA fragmentation in the cytoplasm using a Cell Death Detection ELISA kit (Roche Applied Science).
# Specifically, BALL-1 cells, TKG0210 cells, and TKG0377 cells were inserted into tubes at 5×10^4 cells/well/200 μL, and incubated for 6, 12, 24, 48, and 72 hours in the presence of 3EZ,20Ac-ingenol at a final concentration of 0.5 μM. Subsequently, the respective cells were lysed in a lysis buffer. Subsequently, the supernatant of cell debris of the respective cells was collected and transferred to an ELISA plate, and an absorbance at a wavelength of 405 nm was measured to measure the induction of apoptosis.
# Panc-1 cells = assay: MTT assay, Panc-1 cells; assay type: cell-based, human; settings: 48 hours, read-out: IC50 with respect to the Panc-1 cells
# Method: (§1) JeKo-1 cells of a cell line derived from a human mantle cell lymphoma were seeded in a 96-well plate at 1×10^4 cells/well/100 μL. In addition, Panc-1 cells of a cell line derived from a human pancreatic cancer were seeded in a 96-well plate at 3×10^3 cells/well/100 μL.
# (§2) Subsequently, 3EZ,20Ac-ingenol at final concentrations of 0 (control), 0.1, 0.5, 1, 5, and 10 μM was added the wells of the respective cells, and culturing was performed for 48 hours. Subsequently, cell proliferation was examined by MTT assay using a Cell Proliferation Kit I (Roche Applied Science).
# (§3) First, JeKo-1 cells were seeded in a 96-well plate at 1×10^4 cells/well/100 μL. Subsequently, irinotecan at a final concentration of 0 (control), 0.5, 1, 5, 10, 20, and 30 μM was added to the wells of the cells and culturing was performed for 48 hours. In addition, Panc-1 cells were seeded in a 96-well plate at 3×10^3 cells/well/100 μL. Subsequently, irinotecan at a final concentration of 0 (control), 0.5, 1, 5, 10, 20, 30, and 50 μM was added to the wells of the cells and culturing was performed for 48 hours. Subsequently, cell proliferation was examined by MTT assay using a Cell Proliferation Kit I (Roche Applied Science).
# ATR protein = assay: Western blotting, ATR protein, BALL-1 cells; assay type: cell-based, human; settings: 0.5 μM
# Method: The effects of 3EZ,20Ac-ingenol treatment on expression of ATR were examined. First, BALL-1 cells were cultured in the presence of 3EZ,20Ac-ingenol at a final concentration of 0.5 μM for 12, 24, and 48 hours, and an expression level of ATR protein was analyzed by Western blotting using an anti-ATR antibody (Santa Cruz). Cells cultured in the absence of 3EZ,20Ac-ingenol were used as controls.
# Subsequently, siRNA against ATR (“ON-TARGET Plus Human ATR (545) siRNA-SMARTpool,” GE Dharmacon) was introduced into BALL-1 cells at a final concentration of 50 nM and incubated for 48 hours. Subsequently, a cell medium was replaced with a new medium containing 3EZ,20Ac-ingenol at a final concentration of 0.5 μM and culturing was performed for 12, 24, and 48 hours, and an expression level of ATR protein was analyzed by Western blotting using an anti-ATR antibody (Santa Cruz).
# Cells into which control siRNA (“ON-TARGET Plus Nontargeting pool,” GE Dharmacon) was introduced and which were then cultured in the absence of 3EZ,20Ac-ingenol were used as controls.
# PTEN = assay: Western blotting, PTEN, BALL-1 cells; assay type: cell-based, human; settings: 0.5 μM
# Method: (§4) The effect of 3EZ,20Ac-ingenol treatment on PTEN, p-PTEN, and p-Akt of BALL-1 cells was examined. First, BALL-1 cells were cultured for 3, 6, 12, 24, and 48 hours in the presence of 3EZ,20Ac-ingenol at a final concentration of 0.5 μM, and by Western blotting using an anti-PTEN antibody (Santa Cruz), an anti-p-PTEN (Ser^380/Thr^382/383) antibody (Santa Cruz), and an anti-p-Akt (Ser^473) antibody (Cell Signaling Technology), abundances of PTEN, p-PTEN, and p-Akt in the entire cell fraction were analyzed. In addition, cells cultured in the absence of 3EZ,20Ac-ingenol were used as controls.
# Subsequently, siRNA against PTEN (“ON-TARGET Plus Human PTEN (5728) siRNA-SMARTpool,” GE Dharmacon) was introduced into BALL-1 cells at a final concentration of 50 nM and incubated for 48 hours. Subsequently, a cell medium was replaced with a new medium and cultured for 12, 24, and 48 hours in the presence or absence of 3EZ,20Ac-ingenol at a final concentration of 0.5 μM, and by Western blotting using an anti-PTEN antibody (Santa Cruz) and an anti-p-Akt (Ser^473) antibody (Cell Signaling Technology), abundances of PTEN protein and p-Akt were analyzed.
# [1] = test system: phosphorylated H2AX (γH2AX); assay: Western blotting, phosphorylated H2AX, JeKo-1 cells; assay type: cell-based, human; settings: 0.5 μM, 12 hours after treatment
# Method: Specifically, JeKo-1 cells were cultured for 0 (control), 12, 24 and 48 hours in the presence of 0.5 μM of 3EZ,20Ac-ingenol. In addition, Panc-1 cells were cultured for 0 (control), 12, 24, and 48 hours in the presence of 3 μM of 3EZ,20Ac-ingenol.
# Subsequently, phosphorylation of H2AX in the respective cells was detected using an anti-phosphorylated-H2AX antibody (Millipore). In addition, p21 protein was detected using an anti-p21 antibody (Cell Signaling Technology). Furthermore, as a loading control, actin protein was detected using an anti-actin antibody (Sigma).
# JeKo-1 cells = assay: MTT assay, JeKo-1 cells; assay type: cell-based, human; settings: 48 hours
# Method: as §1, §2, §3
# [2] = test system: p-PTEN (Ser^380/Thr^382/383); assay: Western blotting, p-PTEN, BALL-1 cells; assay type: cell-based, human; settings: 0.5 μM, 3 to 48 hours, entire cell fraction
# Method: as §4
smiles,measurement,setting,value
"CCCCC/C=C\C=C\C(=O)O[C@H]1C(C)=C[C@]23C(=O)[C@@H](C=C(COC(C)=O)[C@@H](O)[C@]12O)[C@H]1[C@@H](C[C@H]3C)C1(C)C [3EZ,20Ac-ingenol, 3-O-(2′E,4′Z-decadienoyl)-20-O-acetylingenol]",cell proliferation of DT40 cells,DT40 cells,stops cell proliferation of DT40 cells
same,amount of fragmented DNA (apoptosis),BALL-1 cells,noticeably increased the amount of fragmented DNA
same,IC50,Panc-1 cells,3000 nM
same,expression of ATR,"ATR protein; cells with siRNA against ATR introduced, 12, 24, 48 hours",an increase in ATR expression was not recognized
same,expression of ATR,ATR protein; from 12 hours until 48 hours,the expression of ATR increased
same,abundance of PTEN,"PTEN; 3 to 48 hours, entire cell fraction",an increase in abundance of PTEN
same,expression level of PTEN,"PTEN; cells with siRNA against PTEN introduced, 12 hours, further increased 24 and 48 hours",an increase in expression level of PTEN was observed
same,phosphorylation of H2AX,[1],phosphorylation of H2AX was detected
same,proliferation inhibition of JeKo-1 cells,"JeKo-1 cells; 1 to 10 μM of 3EZ,20Ac-ingenol",grown cells were almost eliminated
same,IC50,"JeKo-1 cells; MTT assay, read-out: IC50 with respect to the JeKo-1 cells",500 nM
same,abundance of p-PTEN,[2],an abundance of p-PTEN increased
